Reference: publication PMC10886891, “Enhanced Tumor Targeting and Antitumor Activity of Methylated β-Cyclodextrin-Threaded Polyrotaxanes by Conjugating Cyclic RGD Peptides” (Biomolecules, 2024)

Columns and labels:
[1] = test system: 4T1 cells; test: Autophagic cell death: viability of 4T1 cells with 3-MA; assay type: cell-based, murine; conditions: 2 mM 3-MA, 48 h
Procedure: To investigate the induction of autophagic cell death by cRGD-Me-PRXs, 4T1cells were pretreated with 2 mM 3-methyladenine (3-MA; Fujifilm Wako Pure Chemical) for 1 h, followed by treatment with cRGD-Me-PRXs (100 μM threaded β-CD) in the presence of 3-MA for 48 h at 37 °C. Cell viability was determined as described above.

[2] = among various β-CD derivatives; cited from earlier work
Description: Β-Cyclodextrin (β-CD) is a cyclic oligosaccharide comprising seven glucose units connected with α-1,4-linkages. Β-CD and its derivatives can incorporate various low-molecular-weight compounds, such as free cholesterol, into their hydrophobic cavity. Recently, the therapeutic applications of β-CD derivatives have received considerable attention, because they improve the pathology of various metabolic diseases, such as Niemann–Pick type C (NPC) disease, Alzheimer’s disease, and atherosclerosis, through the removal of excess free ch ...

[3] = Cholesterol solubilization (phase solubility); assay type: physicochemical; conditions: pH 7.4, 24 h, 37 °C, n = 3
Procedure: Figure 2 (A) ^1H NMR spectra of Me- N3-PRX and cRGD-Me-PRX in D2O at 25 °C. (B) FT-IR spectra of Me-N3-PRX and cRGD-Me-PRX. (C) Time course of the cleavage of N-Trt end groups in Me-PRX, cRGD-Me-PRX, and cRGE-Me-PRX at pH 7.4 (open symbols) and pH 5.0 (closed symbols) at 37 °C. The data are expressed as the mean ± SD (n = 3). (D) Phase-solubility diagrams of cholesterol with Me-β-CD, cRGD-Me-β-CD, Me-PRX, cRGD-Me-PRX, and cRGE-Me-PRX at pH 7.4 (brown bars) and pH 5.0 (blue bars). The solubility of cholesterol was determined after incubation for 24 h at 37 °C. The data are expressed as the mean ± SD (n = 3; **** p < 0.0001; ns: not significant).
Another important aspect of Me-PRXs is the ability of released β-CDs to form an inclusion complex with intracellular cholesterol, because the interaction with intracellular cholesterol contributes to the induction of cell death. To assess this, the solubility of cholesterol was measured by incubating with Me-PRXs at pH 7.4 (physiological pH) and 5.0 (lysosomal pH) for 24 h was measured (Figure 2D). […] Additionally, the number of methyl groups of cRGD-Me-β-CD (12.5) was less than that of Me-β-CD (14.0), which may explain the reduced cholesterol solubilization capacity.

[4] = Blood chemical analysis; assay type: in vivo, BALB/c mice; conditions: 500 mg/kg i.v., 24 h
Procedure: The PRXs dissolved in PBS were intravenously administered at a dose of 500 mg/kg to female BALB/c mice (8 weeks). […] Plasma levels of blood urea nitrogen (BUN), creatinine (CRE), aspartate aminotransferase (AST), alanine aminotransferase (ALT), free cholesterol (F-CHO), cholesteryl esters (E-CHO), triglycerides (TG), and glucose (GLU) were measured using a Hitachi 7180 automatic analyzer (Hitachi, Tokyo, Japan). In addition, the mice were perfused with saline, and the major organs (heart, liver, spleen, lungs, and kidneys) were collected. The organs were fixed in 10% formalin solution for 1 d and embedded in paraffin. The paraffin blocks were cut into 3 μm sections, which were successively stained with H&E solution to assess histological alterations by bright-field microscope.

[5] = Biodistribution in 4T1 tumor-bearing mice; assay type: in vivo, BALB/c mice; conditions: 24 h after i.v., Cy5.5-labeled; 500 mg/kg (Figure 7), 300 mg/kg; n = 6
Procedure: Animal experiments were approved by the Institutional Animal Care and Use Committee of Tokyo Medical and Dental University. Wild-type BALB/c mice (female, 8-weeks-old) were purchased from Japan SLC (Shizuoka, Japan). Cy5.5-labeled PRXs and CDs were intravenously administered to the mice at a dose of 300 mg/kg. After 24 h, the mice were anesthetized with an intraperitoneal injection of an anesthetized solution containing medetomidine hydrochloride (0.75 mg/kg), midazolam (4 mg/kg), and butorphanol tartrate (5 mg/kg). […] The mice were then perfused with saline, and the hearts, livers, lungs, spleens, kidneys, and tumors were harvested. The collected tissues (approximately 50 mg) were homogenized using a bead beater-type homogenizer (Beads Crusher μT-12; Taitec, Saitama, Japan) at 3000 rpm for 45 s. After centrifuging the homogenates (8000 rpm, 10 min), the supernatant was collected. The fluorescence intensities of the plasma and tissue homogenates were measured using Varioskan LUX at excitation and emission wavelengths of 673 and 707 nm, respectively. The amount of accumulated PRXs in the plasma and each tissue was calculated using the standard curve of Cy5.5-labeled Me-PRXs and Me-β-CDs, and the mean percentage of the injected dose per gram of tissue (ID %/g tissue) was determined for each sample.

[6] = test system: various cells, such as normal cells and apoptosis-resistant cells; conditions: through interactions with cellular cholesterol; cited from earlier work
Description: Β-Cyclodextrin (β-CD) is a cyclic oligosaccharide comprising seven glucose units connected with α-1,4-linkages. Β-CD and its derivatives can incorporate various low-molecular-weight compounds, such as free cholesterol, into their hydrophobic cavity. […] 3-Methyladenine (3-MA) is a commonly used inhibitor of autophagy that functions by inhibiting class III phosphoinositide 3-kinase (PI3K) activity, which plays a pivotal role in autophagy induction. […] To exclude the effects of 3-MA on 4T1 cell viability, cRGD-Me-PRX-t ...

[7] = test system: integrin αv (Itgav) mRNA in 4T1 cells; test: Downregulation of integrin αv by siRNA (RT-PCR); assay type: cell-based, murine; conditions: compared with siControl; 30 nM, 24 h, normalized to Gapdh, n = 4
Procedure: siRNAs against murine integrin subunit alpha V (siItgav; sense: 5′-[…]-3′, antisense: 5′-[…]-3′) and Mission siRNA universal negative control were purchased from Merck. The siRNAs were transfected into 4T1 cells using the Lipofectamine 3000 Transfection Reagent (Thermo Fisher Scientific) at 30 nM for 24 h according to the manufacturer’s instructions. Total RNA was extracted from 4T1 cells using the FastGene RNA Premium Kit (Nippon Genetics, Tokyo, Japan) following the manufacturer’s instructions. The total RNA concentration was measured using a NanoDrop One spectrophotometer (Thermo Fisher Scientific). Total RNA was then converted into cDNA using ReverTra Ace qPCR RT master mix (Toyobo, Osaka, Japan). RT-PCR was performed using the Thunderbird SYBR qPCR mix (Toyobo) on a CFX Connect Real-Time System (Bio-Rad, Hercules, CA, USA). The PCR primer sequences were as follows: murine integrin subunit alpha V (Itgav), forward: 5′-[…]-3′, reverse: 5′-[…]-3′, murine glyceraldehyde 3-phosphate dehydrogenase (Gapdh) forward: 5′-[…]-3′, reverse: 5′-[…]-3′. The PCR cycling conditions included a pre-denaturation at 95 °C for 1 min, followed by 40 cycles of denaturation at 95 °C for 15 s and extension at 60 °C for 30 s. The mRNA expression levels in each sample were determined by the comparative CT (ΔΔCT) method and were normalized to the expression levels of Gapdh.

## Cn1cnc(N)c2ncnc1-2 [3-MA, 3-methyladenine]
[1]
  effect on 4T1 cell viability alone: did not affect cell viability

## Randomly methylated β-CD [Me-β-CD]
[2]
  ability to form inclusion complexes with free cholesterol: highest ability to form inclusion complexes with free cholesterol
[3]
  solubilization of cholesterol: solubilization of cholesterol was observed
[4]
  hepatic and renal toxicity: hepatic and renal toxicities
[4]; n = 6
  plasma AST: increased
  plasma BUN: increased
  plasma CRE: increased
[5]
  accumulation in kidney: mostly accumulated in the kidney
[6]
  apoptosis: induced apoptosis

## siItgav: siRNA against murine integrin subunit alpha V; sense: 5′-GACUUAGUUGUAGGAGCUU-3′, antisense: 5′-AAGCUCCUACAACUAAGUC-3′ (chemistry not given here)
[7]
  expression level of integrin αv: 32.9%
